29 compounds from BindingDB's records for doi:10.1021/jm030165t (National Center For Genetic Engineering and Biotechnology …, 2004) can be followed below.

Assay [1] is described as follows: In vitro anti-plasmodial activity against Plasmodium falciparum dihydrofolate reductase wild type (TM4/8.2).
A short description of assay [2]: In vitro anti-plasmodial activity against Plasmodium falciparum dihydrofolate reductase N51I/C59R/S108N (W2).
The nature of assay [3]: In vitro anti-plasmodial activity against Plasmodium falciparum dihydrofolate reductase C59R+S108N/I164L (Csl-2) mutant.
The nature of assay [4]: In vitro anti-plasmodial activity against Plasmodium falciparum dihydrofolate reductase […]/C59R/S108N/I164L (V1/S) mutant.
Assay [5] addresses Bifunctional dihydrofolate reductase-thymidylate synthase (Plasmodium falciparum (isolate K1 / Thailand), UniProt P13922). The experiment in a line: Binding affinity towards wild-type dihydrofolate reductase of Plasmodium falciparum.
Assay [6] is described as follows: In vitro anti-plasmodial activity against Plasmodium falciparum dihydrofolate reductase C59R/S108N (K1CB1) mutant.
A short description of assay [7]: In vitro anti-plasmodial activity against Plasmodium falciparum dihydrofolate reductase A16V/S108T (T9/94RC17) mutant.

Chain of Bifunctional dihydrofolate reductase-thymidylate synthase (P13922 whole entry): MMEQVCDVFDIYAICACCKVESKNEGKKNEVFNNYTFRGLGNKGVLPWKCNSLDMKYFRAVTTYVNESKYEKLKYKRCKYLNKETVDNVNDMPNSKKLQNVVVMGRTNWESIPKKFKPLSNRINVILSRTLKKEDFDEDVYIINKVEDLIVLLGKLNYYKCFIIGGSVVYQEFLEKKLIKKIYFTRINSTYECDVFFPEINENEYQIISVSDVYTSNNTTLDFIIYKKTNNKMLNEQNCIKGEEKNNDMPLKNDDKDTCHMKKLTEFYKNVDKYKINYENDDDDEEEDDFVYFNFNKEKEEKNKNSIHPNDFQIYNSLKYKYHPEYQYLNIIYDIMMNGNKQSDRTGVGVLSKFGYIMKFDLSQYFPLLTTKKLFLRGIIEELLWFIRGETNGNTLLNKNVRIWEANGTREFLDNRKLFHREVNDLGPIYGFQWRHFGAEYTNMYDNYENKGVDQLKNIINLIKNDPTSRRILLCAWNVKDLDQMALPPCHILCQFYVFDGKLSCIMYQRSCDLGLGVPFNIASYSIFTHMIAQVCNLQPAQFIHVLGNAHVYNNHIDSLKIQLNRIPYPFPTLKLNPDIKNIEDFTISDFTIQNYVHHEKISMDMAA

Regarding `CCc1nc(N)nc(N)c1-c1cccc(Cl)c1` [5-(3-chlorophenyl)-6-ethylpyrimidine-2,4-diamine], the concentration for half-maximal inhibition (IC50) in assay [1] is 420 nM; in assay [2] it was 3900 nM; in assay [3], 2500 nM; in assay [4], 9100 nM.
Turning to `COc1ccc(CCCc2nc(N)nc(N)c2-c2cccc(Cl)c2)cc1` [5-(3-Chloro-phenyl)-6-[3-(4-methoxy-phenyl)-propyl]-pyrimidine-2,4-diamine], the 50% inhibitory concentration (IC50) came out at 410 nM in assay [1], 4000 nM in assay [2], 2700 nM in assay [3] and 4700 nM in assay [4].
In assay [5], `NC1=NC(c2cccc(OCc3ccccc3)c2)N(c2cccc(Cl)c2)C(N)=N1` (stereo not drawn) [6-(3-(benzyloxy)phenyl)-1-(3-chlorophenyl)-1,6-dihydro-1,3,5-triazine-2,4-diamine] yielded a Ki of 2.3 nM. Moreover, the half-inhibitory concentration (IC50) in assay [1] came out at 4000 nM; in assay [2], 3300 nM; in assay [6], 4900 nM; in assay [7], 190 nM; in assay [3], 7500 nM.
In the case of `NC1=NC(c2ccc(Oc3ccccc3)cc2)N(c2ccc(Cl)cc2)C(N)=N1` (stereo not drawn) [1-(4-chlorophenyl)-6-(4-phenoxyphenyl)-1,6-dihydro-1,3,5-triazine-2,4-diamine], the Ki in assay [5] worked out at 0.4 nM. In addition, the IC50 in assay [1] came to 120 nM; in assay [2], 3200 nM; in assay [6], 3100 nM; in assay [7], 40 nM; in assay [3], 4800 nM.
In the case of `NC1=NC(c2cccc(Oc3ccc(Cl)cc3)c2)N(c2ccc(Cl)cc2)C(N)=N1` (stereo not drawn) [6-(3-(4-chlorophenoxy)phenyl)-1-(4-chlorophenyl)-1,6-dihydro-1,3,5-triazine-2,4-diamine], the affinity in assay [5] corresponds to a Ki of 1.4 nM. The values for the IC50 in assay [1], in assay [6] and in assay [7] were 2800 nM, 3300 nM and 420 nM, respectively.
In assay [5], `NC1=NC(c2cccc(Oc3ccccc3)c2)N(c2cccc(Cl)c2)C(N)=N1` (stereo not drawn) [1-(3-chlorophenyl)-6-(3-phenoxyphenyl)-1,6-dihydro-1,3,5-triazine-2,4-diamine] gave an inhibition constant (Ki) of 1.1 nM. Besides, the IC50 is 2200 nM in assay [1]; 3500 nM in assay [2]; 2700 nM in assay [6]; 60 nM in assay [7]; 3400 nM in assay [3]; 3600 nM in assay [4].
In assay [5], `CC(C)C1(C)N=C(N)N=C(N)N1c1ccc(Cl)cc1` (stereo not drawn) [1-(4-Chloro-phenyl)-6-isopropyl-6-methyl-1,6-dihydro-[1,3,5]triazine-2,4-diamine] yielded a Ki of 36.5 nM.
In turn, `CC(=O)OCCCc1nc(N)nc(N)c1-c1ccccc1` [Acetic acid 3-(2,6-diamino-5-phenyl-pyrimidin-4-yl)-propyl ester] showed a Ki in assay [5] of 10.6 nM.
In turn, `CCCC1(C)N=C(N)N=C(N)N1c1cccc(Cl)c1` (stereo not drawn) [1-(3-chlorophenyl)-6-methyl-6-propyl-1,6-dihydro-1,3,5-triazine-2,4-diamine] came in with an inhibition constant (Ki) in assay [5] of 4.6 nM. Besides, the half-inhibitory concentration (IC50) in assay [1] amounted to 180 nM; in assay [2], 280 nM; in assay [6] it was 180 nM; in assay [3], 290 nM; in assay [4], 1100 nM.
The compound `Nc1nc(N)c(-c2cccc(Cl)c2)c(CCCOC(=O)OCc2ccccc2)n1` [benzyl 3-(2,6-diamino-5-(3-chlorophenyl)pyrimidin-4-yl)propyl carbonate] gave a Ki in assay [5] of 1.2 nM. Also, the IC50 in assay [1] was determined as 1900 nM; in assay [2] it was 4100 nM; in assay [3], 1900 nM; in assay [4] it was 5900 nM.
Compound `NC1=NC(c2cccc(Oc3ccccc3)c2)N(c2ccc(Cl)cc2)C(N)=N1` (stereo not drawn) [1-(4-Chloro-phenyl)-6-(3-phenoxy-phenyl)-1,6-dihydro-[1,3,5]triazine-2,4-diamine] registered a Ki in assay [5] of 0.5 nM.
Consider `Nc1nc(N)c(-c2cccc(Cl)c2)c(CCCOC(=O)c2ccccc2)n1` [3-(2,6-diamino-5-(3-chlorophenyl)pyrimidin-4-yl)propyl benzoate], for which the inhibition constant Ki in assay [5] worked out at 1.5 nM. Moreover, the IC50 was found to be 2100 nM in assay [1], 2000 nM in assay [2], 1900 nM in assay [3] and 7500 nM in assay [4].
In assay [5], `NC1=NC(c2cccc(OCc3ccccc3)c2)N(c2ccc(Cl)cc2)C(N)=N1` (stereo not drawn) [6-(3-Benzyloxy-phenyl)-1-(4-chloro-phenyl)-1,6-dihydro-[1,3,5]triazine-2,4-diamine] returned an inhibition constant Ki of 0.7 nM.
In the case of `Nc1nc(N)c(-c2ccccc2)c(CCCOC(=O)c2ccccc2)n1` [Benzoic acid 3-(2,6-diamino-5-phenyl-pyrimidin-4-yl)-propyl ester], affinity in assay [5] was put at a Ki of 3.4 nM.
For `NC1=NC(c2cccc(OCCCOc3cc(Cl)c(Cl)cc3Cl)c2)N(c2cccc(Cl)c2)C(N)=N1` (stereo not drawn) [1-(3-chlorophenyl)-6-(3-(3-(2,4,5-trichlorophenoxy)propoxy)phenyl)-1,6-dihydro-1,3,5-triazine-2,4-diamine], in assay [5], the affinity corresponds to a Ki of 4 nM. The IC50 worked out at 3000 nM in assay [1]; 3200 nM in assay [2]; 7400 nM in assay [6]; 370 nM in assay [7]; 5200 nM in assay [3]; 8600 nM in assay [4].
Compound `CCCCCCCC1N=C(N)N=C(N)N1c1cccc(Cl)c1` (stereo not drawn) [1-(3-Chloro-phenyl)-6-heptyl-1,6-dihydro-[1,3,5]triazine-2,4-diamine] showed an inhibition constant Ki in assay [5] of 2.7 nM. In addition, the IC50 in assay [1] was determined as 40 nM; in assay [2], 330 nM; in assay [6] it was 260 nM; in assay [7], 4 nM; in assay [3] it was 140 nM; in assay [4], 2500 nM.
For the compound `Nc1nc(N)c(-c2cccc(Cl)c2)c(CCCc2ccccc2)n1`, the IC50 in assay [1] came to 670 nM; in assay [2], 4300 nM; in assay [3], 3600 nM; in assay [4], 5700 nM.
Regarding `CCCOc1ccc(C2N=C(N)N=C(N)N2c2cccc(Cl)c2)cc1` (stereo not drawn) [1-(3-chlorophenyl)-6-(4-propoxyphenyl)-1,6-dihydro-1,3,5-triazine-2,4-diamine], the IC50 in assay [1] amounted to 250 nM; in assay [2] it was 380 nM; in assay [6], 1000 nM; in assay [7], 4 nM; in assay [3], 2900 nM; in assay [4], 2900 nM.
Take `CCCCCCc1nc(N)nc(N)c1-c1ccccc1` [6-hexyl-5-phenylpyrimidine-2,4-diamine]: the 50% inhibitory concentration (IC50) in assay [1] is 60 nM; in assay [2], 2300 nM; in assay [3], 3000 nM; in assay [4], 6400 nM.
For `CCCCCCC1(C)N=C(N)N=C(N)N1c1ccc(Cl)cc1` (stereo not drawn) [1-(4-chlorophenyl)-6-hexyl-6-methyl-1,6-dihydro-1,3,5-triazine-2,4-diamine], in assay [5], affinity was put at a Ki of 0.6 nM. The half-maximal inhibitory concentration (IC50) was 20 nM in assay [1]; 3300 nM in assay [2]; 2400 nM in assay [6]; 1900 nM in assay [7]; 4100 nM in assay [3]; 6400 nM in assay [4].
Turning to `CC1(C)N=C(N)N=C(N)N1c1ccc(Cl)cc1` [Chlorazin], the IC50 in assay [1] was 40 nM; in assay [2], 5800 nM; in assay [7], 3700 nM; in assay [3], 37900 nM; in assay [4], greater than 100000 nM.
For `Nc1nc(N)c(-c2ccccc2)c(CCCc2ccccc2)n1`, the IC50 turned out to be 210 nM in assay [1], 2700 nM in assay [2], 2700 nM in assay [3] and 8600 nM in assay [4].
With `CC(=O)OCCCc1nc(N)nc(N)c1-c1cccc(Cl)c1` [Acetic acid 3-[2,6-diamino-5-(3-chloro-phenyl)-pyrimidin-4-yl]-propyl ester], the concentration for half-maximal inhibition (IC50) in assay [1] was 1600 nM; in assay [2], 2100 nM; in assay [3], 1800 nM; in assay [4], 5300 nM.
Take `Nc1nc(N)c(-c2cccc(Cl)c2)c(CCCO)n1` [3-[2,6-Diamino-5-(3-chloro-phenyl)-pyrimidin-4-yl]-propan-1-ol]: the Ki in assay [5] came to 9.2 nM. Further, the IC50 is 1100 nM in assay [1], 4500 nM in assay [2], 1900 nM in assay [3] and 6200 nM in assay [4].
Turning to `Nc1nc(N)c(-c2cccc(Cl)c2)c(CCOCCCOc2ccccc2)n1` [5-(3-chlorophenyl)-6-[2-(3-phenoxypropoxy)ethyl]pyrimidine-2,4-diamine], the IC50 was found to be 350 nM in assay [1], 4500 nM in assay [2], 2900 nM in assay [3] and 4600 nM in assay [4].
Turning to `CC(C)C1(C)N=C(N)N=C(N)N1c1cccc(Cl)c1` (stereo not drawn) [1-(3-Chloro-phenyl)-6-isopropyl-6-methyl-1,6-dihydro-[1,3,5]triazine-2,4-diamine], the affinity in assay [5] corresponds to a Ki of 25.5 nM.
For the compound `NC1=NC(c2ccccc2)N(c2cccc(Cl)c2)C(N)=N1` (stereo not drawn) [1-(3-chlorophenyl)-6-phenyl-1,6-dihydro-1,3,5-triazine-2,4-diamine], the half-inhibitory concentration (IC50) worked out at 560 nM in assay [1]; 200 nM in assay [2]; 310 nM in assay [6]; 20 nM in assay [7]; 250 nM in assay [3]; 800 nM in assay [4].
Turning to `CCCC1(C)N=C(N)N=C(N)N1c1ccc(Cl)cc1` (stereo not drawn) [1-(4-Chloro-phenyl)-6-methyl-6-propyl-1,6-dihydro-[1,3,5]triazine-2,4-diamine], the affinity in assay [5] corresponds to a Ki of 3.5 nM.
With `CCCCCCC1(C)N=C(N)N=C(N)N1c1cccc(Cl)c1` (stereo not drawn) [1-(3-Chloro-phenyl)-6-hexyl-6-methyl-1,6-dihydro-[1,3,5]triazine-2,4-diamine], the inhibition constant Ki in assay [5] came out at 2.4 nM. Also, the half-inhibitory concentration (IC50) in assay [1] is 60 nM; in assay [2], 510 nM; in assay [6] it was 480 nM; in assay [3], 490 nM; in assay [4], 3200 nM.

In general, IC50 refers to the midpoint of a concentration-inhibition curve. Read a low IC50 as greater potency. In general, Ki refers to a dissociation constant, usually derived from enzyme kinetics or from competition with a known ligand.
